Measurements as given in patent US10836725B2, “Modulators of the integrated stress pathway” (Calico Life Sciences LLC, priority 2016, dated 2020).

system: ATF4 luciferase reporter; test: ATF4-Luc assay in HEK293T cells carrying the ATF4 luciferase reporter (in vitro model of VWMD); assay type: cell-based, human; settings: Homo sapiens, HEK-293T, 1 μg/mL tunicamycin, 7 hours, luminescence (One Glo)
Procedure, shortened: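 Compound at 200 nM and tunicamycin at 1 μg/mL were given together for 7 h to HEK293T cells stably transduced with an ATF4 5′-UTR-driven firefly luciferase reporter. Read-out by luminescence, reported as EC50.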

| SMILES | EC50 [nM] |
| --- | --- |
| Cc1cc(CCNC(=O)C23CC(NC(=O)COc4ccc(Cl)c(F)c4)(C2)C3)cc(C)n1 [Compound 211, 3-[2-(4-chloro-3-fluorophenoxy)acetamido]-N-[2-(2,6-dimethylpyridin-4-yl)ethyl]bicyclo[1.1.1]pentane-1-carboxamide] | 1000 to 2000 |
| CC(C)Cc1cc(CNC(=O)C23CC(NC(=O)COc4ccc(Cl)c(F)c4)(C2)C3)on1 [Compound 212, 3-[2-(4-chloro-3-fluorophenoxy)acetamido]-N-{[3-(2-methylpropyl)-1,2-oxazol-5-yl]methyl}bicyclo[1.1.1]pentane-1-carboxamide] | > 2000 |
| O=C(COc1ccc(Cl)c(F)c1)NC12CC(C(=O)NCCc3ccc(C(F)(F)F)cn3)(C1)C2 [Compound 213, 3-[2-(4-chloro-3-fluorophenoxy)acetamido]-N-{2-[5-(trifluoromethyl)pyridin-2-yl]ethyl}bicyclo[1.1.1]pentane-1-carboxamide] | > 2000 |
| Cc1cccc(-c2nc(CNC(=O)C34CC(NC(=O)COc5ccc(Cl)c(F)c5)(C3)C4)cs2)c1 [Compound 214, 3-[2-(4-chloro-3-fluorophenoxy)acetamido]-N-{[2-(3-methylphenyl)-1,3-thiazol-4-yl]methyl}bicyclo[1.1.1]pentane-1-carboxamide] | > 2000 |
| O=C(COc1ccc(Cl)c(F)c1)NC12CC(C(=O)NCc3ccc(C(F)(F)F)o3)(C1)C2 [Compound 215, 3-[2-(4-chloro-3-fluorophenoxy)acetamido]-N-{[5-(trifluoromethyl)furan-2-yl]methyl}bicyclo[1.1.1]pentane-1-carboxamide] | > 2000 |
| COc1cccc(CNC(=O)C23CC(NC(=O)COc4ccc(Cl)c(F)c4)(C2)C3)c1 [Compound 216, 3-[2-(4-chloro-3-fluorophenoxy)acetamido]-N-[(3-methoxyphenyl)methyl]bicyclo[1.1.1]pentane-1-carboxamide] | > 2000 |
| CCc1nccc(CNC(=O)C23CC(NC(=O)COc4ccc(Cl)c(F)c4)(C2)C3)n1 [Compound 217, 3-[2-(4-chloro-3-fluorophenoxy)acetamido]-N-[(2-ethylpyrimidin-4-yl)methyl]bicyclo[1.1.1]pentane-1-carboxamide] | > 2000 |
| O=C(COc1ccc(Cl)c(F)c1)NC12CC(C(=O)NCc3cccc(Cl)c3)(C1)C2 [Compound 219, 3-[2-(4-chloro-3-fluorophenoxy)acetamido]-N-[(3-chlorophenyl)methyl]bicyclo[1.1.1]pentane-1-carboxamide] | > 2000 |
| Cc1noc(C)c1CCCNC(=O)C12CC(NC(=O)COc3ccc(Cl)c(F)c3)(C1)C2 [Compound 220, 3-[2-(4-chloro-3-fluorophenoxy)acetamido]-N-[3-(3,5-dimethyl-1,2-oxazol-4-yl)propyl]bicyclo[1.1.1]pentane-1-carboxamide] | > 2000 |
| Cc1ccnc(CNC(=O)C23CC(NC(=O)COc4ccc(Cl)c(F)c4)(C2)C3)c1 [Compound 221, 3-[2-(4-chloro-3-fluorophenoxy)acetamido]-N-[(4-methylpyridin-2-yl)methyl]bicyclo[1.1.1]pentane-1-carboxamide] | > 2000 |
| O=C(COc1ccc(Cl)c(F)c1)NC12CC(C(=O)NCc3ccno3)(C1)C2 [Compound 222, 3-[2-(4-chloro-3-fluorophenoxy)acetamido]-N-[(1,2-oxazol-5-yl)methyl]bicyclo[1.1.1]pentane-1-carboxamide] | > 2000 |
| O=C(COc1ccc(Cl)c(F)c1)NC12CC(C(=O)NCc3nnc4n3CCCC4)(C1)C2 [Compound 223, 3-[2-(4-chloro-3-fluorophenoxy)acetamido]-N-[(5,6,7,8-tetrahydro[1,2,4]triazolo[4,3-a]pyridin-3-yl)methyl]bicyclo[1.1.1]pentane-1-carboxamide] | > 2000 |

Results, then the molecule that gave them:

| EC50 [nM] | SMILES |
| --- | --- |
| > 2000 | O=C(COc1ccc(Cl)c(F)c1)NC12CC(C(=O)NCc3ccccn3)(C1)C2 [Compound 224, 3-[2-(4-chloro-3-fluorophenoxy)acetamido]-N-[(pyridin-2-yl)methyl]bicyclo[1.1.1]pentane-1-carboxamide] |
| > 2000 | O=C(COc1ccc(Cl)c(F)c1)NC12CC(C(=O)NCc3ccc(OC(F)(F)F)cc3)(C1)C2 [Compound 225, 3-[2-(4-chloro-3-fluorophenoxy)acetamido]-N-{[4-(trifluoromethoxy)phenyl]methyl}bicyclo[1.1.1]pentane-1-carboxamide] |
| > 2000 | N#Cc1ccc(CNC(=O)C23CC(NC(=O)COc4ccc(Cl)c(F)c4)(C2)C3)cn1 [Compound 226, 3-[2-(4-chloro-3-fluorophenoxy)acetamido]-N-[(6-cyanopyridin-3-yl)methyl]bicyclo[1.1.1]pentane-1-carboxamide] |
| > 2000 | CC(C)c1ccc(CNC(=O)C23CC(NC(=O)COc4ccc(Cl)c(F)c4)(C2)C3)cc1 [Compound 227, 3-[2-(4-chloro-3-fluorophenoxy)acetamido]-N-{[4-(propan-2-yl)phenyl]methyl}bicyclo[1.1.1]pentane-1-carboxamide] |
| > 2000 | Cc1cnc(CNC(=O)C23CC(NC(=O)COc4ccc(Cl)c(F)c4)(C2)C3)cn1 [Compound 228, 3-[2-(4-chloro-3-fluorophenoxy)acetamido]-N-[(5-methylpyrazin-2-yl)methyl]bicyclo[1.1.1]pentane-1-carboxamide] |
| > 2000 | COCc1ccc(CNC(=O)C23CC(NC(=O)COc4ccc(Cl)c(F)c4)(C2)C3)cc1 [Compound 229, 3-[2-(4-chloro-3-fluorophenoxy)acetamido]-N-{[4-(methoxymethyl)phenyl]methyl]bicyclo[1.1.1]pentane-1-carboxamide] |
| > 2000 | CCc1csc(CCNC(=O)C23CC(NC(=O)COc4ccc(Cl)c(F)c4)(C2)C3)n1 [Compound 230, 3-[2-(4-chloro-3-fluorophenoxy)acetamido]-N-[2-(4-ethyl-1,3-thiazol-2-yl)ethyl]bicyclo[1.1.1]pentane-1-carboxamide] |
| > 2000 | O=C(COc1ccc(Cl)c(F)c1)NC12CC(C(=O)NCc3cc(F)cc(C(F)(F)F)c3)(C1)C2 [Compound 231, 3-[2-(4-chloro-3-fluorophenoxy)acetamido]-N-{[3-fluoro-5-(trifluoromethyl)phenyl]methyl}bicyclo[1.1.1]pentane-1-carboxamide] |
| > 2000 | COc1cccc(CNC(=O)C23CC(NC(=O)COc4ccc(Cl)c(F)c4)(C2)C3)n1 [Compound 232, 3-[2-(4-chloro-3-fluorophenoxy)acetamido]-N-[(6-methoxypyridin-2-yl]methyl]bicyclo[1.1.1]pentane-1-carboxamide] |
| > 2000 | O=C(COc1ccc(Cl)c(F)c1)NC12CC(C(=O)NCc3ccncc3)(C1)C2 [Compound 233, 3-[2-(4-chloro-3-fluorophenoxy)acetamido]-N-[(pyridin-4-yl]methyl]bicyclo[1.1.1]pentane-1-carboxamide] |
| > 2000 | O=C(COc1ccc(Cl)c(F)c1)NC12CC(C(=O)NCCc3ccncc3)(C1)C2 [Compound 234, 3-[2-(4-chloro-3-fluorophenoxy)acetamido]-N-[2-(pyridin-4-yl)ethyl]bicyclo[1.1.1]pentane-1-carboxamide] |
| > 2000 | O=C(COc1ccc(Cl)c(F)c1)NC12CC(C(=O)NCc3ccon3)(C1)C2 [Compound 235, 3-[2-(4-chloro-3-fluorophenoxy)acetamido]-N-[(1,2-oxazol-3-yl]methyl]bicyclo[1.1.1]pentane-1-carboxamide] |
